Source: patent publication US20100104659A1, “BENZOPYRANOPYRAZOLES” (priority 2006, published 2010)
Structures can show the parent of a compound that is named as a salt.

Assays:
[1] = tested on: RKO human colon adenocarcinoma cells (RKOp27 subclone), proliferating; assay: Alamar Blue cell viability assay, RKO p27 uninduced (proliferating); settings: RKOp27, 72 h, read-out: −log EC50 [mol/l] RKO p27 uninduced (proliferating), anti-proliferative/cytotoxic activity (converted)
Procedure: (§1) The anti-proliferative/cytotoxic activity of the compounds described herein can be tested on subclones of RKO human colon adenocarcinoma cells (Schmidt et al., Oncogene 19, 2423-2429; 2000) using the Alamar Blue cell viability assay (described in O'Brien et al. Eur J Biochem 267, 5421-5426, 2000). The compounds are dissolved as 10 mM solutions in DMSO and subsequently diluted in semi-logarithmic steps. DMSO dilutions are further diluted 1:100 into Dulbecco's modified Eagle's medium (DMEM) containing 10% fetal calf serum to a final concentration twice as much as the final concentration in the test. RKO subclones are seeded into 96 well flat bottom plates at a density of 4000 cells per well in a volume of 50 μl per well. 24 hours after seeding the 50 μl each of the compound dilutions in DMEM medium are added into each well of the 96 well plate. Each compound dilution is tested as triplicates. Wells containing untreated control cells are filled with 50 μl DMEM medium containing 1% DMSO. The cells are then incubated with the substances for 72 hours at 37° C. in a humidified atmosphere containing 5% carbon dioxide. To determine the viability of the cells, 10 μl of an Alamar Blue solution (Biosource) are added and the fluorescence is measured at an extinction of 544 nm and an emission of 590 nm. For the calculation of the cell viability the emission value from untreated cells is set as 100% viability and the emission rates of treated cells are set in relation to the values of untreated cells. Viabilities are expressed as % values. The Graphpad Prism program (GraphPad Software, Inc) is used for the calculation of EC50 values for anti-proliferative/cytotoxic activity out of the obtained dose-response curves.
(§2) Each compound dilution is tested as triplicates. Wells containing untreated control cells are filled with 50 μl DMEM medium containing 1% DMSO. The cells are then incubated with the substances for 72 hours at 37° C. in a humidified atmosphere containing 5% carbon dioxide. To determine the viability of the cells, 10 μl of an Alamar Blue solution (Biosource) are added and the fluorescence is measured at an extinction of 544 nm and an emission of 590 nm. For the calculation of the cell viability the emission value from untreated cells is set as 100% viability and the emission rates of treated cells are set in relation to the values of untreated cells. Viabilities are expressed as % values. The Graphpad Prism program is used for the calculation of EC50 values out of the obtained dose-response curves. Viability is compared of proliferating cells grown in the absence of the inducer Ponasterone A, versus viability of cells arrested by the expression of ectopic p27Kip1 induced by Ponasterone A.

[2] = tested on: RKO human colon adenocarcinoma cells (RKOp27 subclone), proliferating
Procedure: as §1, §2

| Molecule | melting point [°C] | EC50 [1] [nM] | −log EC50 [mol/l] RKO p27 uninduced (proliferating), anti-proliferative/cytotoxic activity [2] |
| --- | --- | --- | --- |
| CN(C)CCN(C)C(=O)N1N=C2c3cc(F)ccc3OC[C@@H]2[C@@H]1c1ccccc1 (racemic) (as salt: salt) [Example 19, (3RS,3aRS)-8-Fluoro-3-phenyl-3a,4-dihydro-3H-chromeno[4,3-c]pyrazole-2-carboxylic acid (2-dimethylamino-ethyl)-methyl-amide] | 248 to 250 |  |  |
| CCN(C)C(=O)N1N=C2c3cc(F)ccc3OC[C@@H]2[C@@H]1c1ccccc1 (racemic) [Example 14, (3RS,3aRS)-8-Fluoro-3-phenyl-3a,4-dihydro-3H-chromeno[4,3-c]pyrazole-2-carboxylic acid ethyl-methyl-amide] | 133 to 137 | 100 to 1000 |  |
| O=C(N(C1CCNCC1)C1CC1)N1N=C2c3cc(F)ccc3OC[C@@H]2[C@@H]1c1ccccc1 (racemic) [Example 17, (3RS,3aRS)-8-Fluoro-3-phenyl-3a,4-dihydro-3H-chromeno[4,3-c]pyrazole-2-carboxylic acid cyclopropyl-piperidin-4-yl-amide] | 142 | 100 to 1000 |  |
| CN(C)CCCN(C)C(=O)N1N=C2c3cc(F)ccc3OC[C@@H]2[C@@H]1c1cccc(O)c1 (racemic) (as salt: salt) [Example 6, (3RS,3aRS)-8-Fluoro-3-(3-hydroxy-phenyl)-3a,4-dihydro-3H-chromeno[4,3-c]pyrazole-2-carboxylic acid (3-dimethylamino-propyl)-methyl-amide] | 145 |  |  |
| CN(C)C(=O)N1N=C2c3cc(F)ccc3OC[C@@H]2[C@@H]1c1ccccc1 (racemic) [Example 7, (3RS,3aRS)-8-Fluoro-3-phenyl-3a,4-dihydro-3H-chromeno[4,3-c]pyrazole-2-carboxylic acid dimethylamide] | 117 | 100 to 1000 |  |
| (3RS,3aRS)-8-Fluoro-3-phenyl-3a,4-dihydro-3H-chromeno[4,3-c]pyrazole-2-carboxylic acid methyl-((R)-1-methyl-piperidin-3-ylmethyl)-amide and (3RS,3aRS)-8-Fluoro-3-phenyl-3a,4-dihydro-3H-chromeno[4,3-c]pyrazole-2-carboxylic acid methyl-((S)-1-methyl-piperidin-3-ylmethyl)-amide [Example 24] |  |  | (proliferating) ≧7.0 mol/l |
| CN(CCN)C(=O)N1N=C2c3cc(F)ccc3OC[C@@H]2[C@@H]1c1ccccc1 (stereo in doubt) [Example 18, (3RS,3aRS)-8-Fluoro-3-phenyl-3a,4-dihydro-3H-chromeno[4,3-c]pyrazole-2-carboxylic acid (2-amino-ethyl)-methyl-amide] | 113.2 | ≤ 100 |  |
| CN(C(=O)N1N=C2c3cc(F)ccc3OC[C@@H]2[C@@H]1c1ccccc1)C1CCNCC1 (racemic) [Example 16, (3RS,3aRS)-8-Fluoro-3-phenyl-3a,4-dihydro-3H-chromeno[4,3-c]pyrazole-2-carboxylic acid methyl-piperidin-4-yl-amide] | 196 | ≤ 100 |  |
| CC(C)N(C)C(=O)N1N=C2c3cc(F)ccc3OC[C@@H]2[C@@H]1c1ccccc1 (racemic) [Example 13, (3RS,3aRS)-8-Fluoro-3-phenyl-3a,4-dihydro-3H-chromeno[4,3-c]pyrazole-2-carboxylic acid isopropyl-methyl-amide] | 102 to 105 |  |  |
| CN(CCNC(C)(C)C)C(=O)N1N=C2c3cc(F)ccc3OC[C@H]2[C@H]1c1ccccc1 (racemic) [Example 40, (3SR,3aSR)-8-Fluoro-3-phenyl-3a,4-dihydro-3H-chromeno[4,3-c]pyrazole-2-carboxylic acid (2-tert-butylamino-ethyl)-methyl-amide] |  | ≤ 100 |  |
| CN(CCO)CCCN(C)C(=O)N1N=C2c3cc(F)ccc3OC[C@H]2[C@H]1c1ccccc1 (racemic) [Example 50, (3SR,3aSR)-8-Fluoro-3-phenyl-3a,4-dihydro-3H-chromeno[4,3-c]pyrazole-2-carboxylic acid {3-[(2-hydroxy-ethyl)-methyl-amino]-propyl}-methyl-amide] |  | ≤ 100 |  |
| CN1CCC(N(C)C(=O)N2N=C3c4cc(F)ccc4OC[C@H]3[C@H]2c2ccccc2)CC1 [Example 9a, (3S,3aS)-8-Fluoro-3-phenyl-3a,4-dihydro-3H-chromeno[4,3-c]pyrazole-2-carboxylic acid methyl-(1-methyl-piperidin-4-yl)-amide] |  | ≤ 100 |  |
| CN(CCCN1CCCC1)C(=O)N1N=C2c3cc(F)ccc3OC[C@H]2[C@H]1c1ccccc1 (racemic) [Example 34, (3SR,3aSR)-8-Fluoro-3-phenyl-3a,4-dihydro-3H-chromeno[4,3-c]pyrazole-2-carboxylic acid methyl-(3-pyrrolidin-1-yl-propyl)-amide] |  | ≤ 100 |  |
| CCN(CCO)CCN(C)C(=O)N1N=C2c3cc(F)ccc3OC[C@@H]2[C@@H]1c1ccccc1 (racemic) [Example 58, (3RS,3aRS)-8-Fluoro-3-phenyl-3a,4-dihydro-3H-chromeno[4,3-c]pyrazole-2-carboxylic acid {2-[ethyl-(2-hydroxy-ethyl)-amino]-ethyl}-methyl-amide] |  | ≤ 100 |  |
| (3RS,3aRS)-8-Fluoro-3-phenyl-3a,4-dihydro-3H-chromeno[4,3-c]pyrazole-2-carboxylic acid ((R)-1-isopropyl-piperidin-3-ylmethyl)-methyl-amide and (3RS,3aRS)-8-Fluoro-3-phenyl-3a,4-dihydro-3H-chromeno[4,3-c]pyrazole-2-carboxylic acid ((S)-1-isopropyl-piperidin-3-ylmethyl)-methyl-amide [Example 26] |  |  | (proliferating) ≧7.0 mol/l |
| CN(C)C(=O)N1N=C2c3cc(F)ccc3OC[C@@H]2[C@@H]1c1cccc(O)c1 (racemic) [Example 2, (3RS,3aRS)-8-Fluoro-3-(3-hydroxy-phenyl)-3a,4-dihydro-3H-chromeno[4,3-c]pyrazole-2-carboxylic acid dimethylamide] |  | 100 to 1000 |  |
| CC1CCN(CCCN(C)C(=O)N2N=C3c4cc(F)ccc4OC[C@H]3[C@H]2c2ccccc2)CC1 (racemic) [Example 66, (3SR,3aSR)-8-Fluoro-3-phenyl-3a,4-dihydro-3H-chromeno[4,3-c]pyrazole-2-carboxylic acid methyl-[3-(4-methyl-piperidin-1-yl)-propyl]-amide] |  | ≤ 100 |  |
| C=CCNCCCN(C)C(=O)N1N=C2c3cc(F)ccc3OC[C@H]2[C@H]1c1ccccc1 (racemic) [Example 52, (3SR,3aSR)-8-Fluoro-3-phenyl-3a,4-dihydro-3H-chromeno[4,3-c]pyrazole-2-carboxylic acid (3-allylamino-propyl)-methyl-amide] |  | 100 to 1000 |  |
| CNCCN(C)C(=O)N1N=C2c3cc(F)ccc3OC[C@@H]2[C@@H]1c1ccccc1 (racemic) [Example 23, (3RS,3aRS)-8-Fluoro-3-phenyl-3a,4-dihydro-3H-chromeno[4,3-c]pyrazole-2-carboxylic acid methyl-(2-methylamino-ethyl)-amide] |  | 100 to 1000 |  |
| CC(C)CN(C)C(=O)N1N=C2c3cc(F)ccc3OC[C@@H]2[C@@H]1c1ccccc1 (racemic) [Example 12, (3RS,3aRS)-8-Fluoro-3-phenyl-3a,4-dihydro-3H-chromeno[4,3-c]pyrazole-2-carboxylic acid isobutyl-methyl-amide] |  | 100 to 1000 |  |
| CN(CCCNC(C)(C)C)C(=O)N1N=C2c3cc(F)ccc3OC[C@H]2[C@H]1c1ccccc1 (racemic) [Example 43, (3SR,3aSR)-8-Fluoro-3-phenyl-3a,4-dihydro-3H-chromeno[4,3-c]pyrazole-2-carboxylic acid (3-tert-butylamino-propyl)-methyl-amide] |  | 100 to 1000 |  |
| CCN(CC)CCN(C)C(=O)N1N=C2c3cc(F)ccc3OC[C@H]2[C@H]1c1ccccc1 (racemic) [Example 45, (3SR,3aSR)-8-Fluoro-3-phenyl-3a,4-dihydro-3H-chromeno[4,3-c]pyrazole-2-carboxylic acid (2-diethylamino-ethyl)-methyl-amide] |  | ≤ 100 |  |
| CN(CCCNCC1CC1)C(=O)N1N=C2c3cc(F)ccc3OC[C@H]2[C@H]1c1ccccc1 (racemic) [Example 54, (3SR,3aSR)-8-Fluoro-3-phenyl-3a,4-dihydro-3H-chromeno[4,3-c]pyrazole-2-carboxylic acid [3-(cyclopropylmethyl-amino)-propyl]-methyl-amide] |  | 100 to 1000 |  |
| CN(C(=O)N1N=C2c3cc(F)ccc3OCC2C1c1ccccc1)C1CCCNC1 (mixture of isomers) [Example 25, (3RS,3aRS)-8-Fluoro-3-phenyl-3a,4-dihydro-3H-chromeno[4,3-c]pyrazole-2-carboxylic acid (R)-methyl-piperidin-3-yl-amide and (3RS,3aRS)-8-Fluoro-3-phenyl-3a,4-dihydro-3H-chromeno[4,3-c]pyrazole-2-carboxylic acid (S)-methyl-piperidin-3-yl-amide] |  | ≤ 100 |  |
